Test results published in patent publication US20240246964A1 (Arbutus Biopharma Corporation, priority 2021, published 2024).

Biological target: human PD-L1 (Homo sapiens (Human), UniProt Q9NZQ7)
Experiment: T cell activation luciferase reporter cell culture system (T Cell Activation Assay)
Type: cell-based
Conditions: luciferase reporter assay; PD-L1 aAPC/CHO-K1 cells with PD-1 effector Jurkat T cells

Sequence of human PD-L1 (Q9NZQ7 19-290): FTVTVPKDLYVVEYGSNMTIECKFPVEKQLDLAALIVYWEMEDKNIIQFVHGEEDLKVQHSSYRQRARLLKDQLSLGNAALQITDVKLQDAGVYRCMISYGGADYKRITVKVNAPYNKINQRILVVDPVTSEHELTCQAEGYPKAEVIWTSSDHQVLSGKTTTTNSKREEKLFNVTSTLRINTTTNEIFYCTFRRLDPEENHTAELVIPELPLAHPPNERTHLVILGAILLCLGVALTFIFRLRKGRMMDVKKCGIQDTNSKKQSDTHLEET

Row | Compound | EC50 [nM]
1 | COc1nc(-c2cccc(-c3ccnc(-c4cnn(CC5CNC5)c4)c3Cl)c2Cl)ccc1CNC[C@@H]1CCC(=O)N1 [Cmpd 120, (S)-5-((((6-(3-(2-(1-(azetidin-3-ylmethyl)-1H-pyrazol-4-yl)-3-chloropyridin-4-yl)-2-chlorophenyl)-2-methoxypyridin-3-yl)methyl)amino)methyl)pyrrolidin-2-one] | 972
2 | COc1cc(-c2nccc(-c3cccc(-c4ccc(CNC[C@@H]5CCC(=O)N5)c(OC)n4)c3Cl)c2Cl)ccc1CNC1(C(=O)O)CC1 [Cmpd 121, (S)-1-((4-(3-chloro-4-(2-chloro-3-(6-methoxy-5-((((5-oxopyrrolidin-2-yl)methyl)amino)methyl)pyridin-2-yl)phenyl)pyridin-2-yl)-2-methoxybenzyl)amino)cyclopropane-1-carboxylic acid] | 131
3 | COc1cc(-c2nccc(-c3cccc(-c4ccc(CNC[C@@H]5CCC(=O)N5)c(OC)n4)c3Cl)c2Cl)ccc1CNC[C@@H]1CCO1 [Cmpd 122, (S)-5-((((6-(2-chloro-3-(3-chloro-2-(3-methoxy-4-(((((S)-oxetan-2-yl)methyl)amino)methyl)phenyl)pyridin-4-yl)phenyl)-2-methoxypyridin-3-yl)methyl)amino)methyl)pyrrolidin-2-one] | 55.7
4 | COc1cc(-c2nccc(-c3cccc(-c4cc(Cl)c(CNC[C@@H]5CCC(=O)N5)c(OC)n4)c3Cl)c2Cl)ccc1CNCC(=O)OC(C)C [Cmpd 123, isopropyl (S)-(4-(3-chloro-4-(2-chloro-3-(4-chloro-6-methoxy-5-((((5-oxopyrrolidin-2-yl)methyl)amino)methyl)pyridin-2-yl)phenyl)pyridin-2-yl)-2-methoxybenzyl)glycinate] | 129
5 | COc1cc(-c2nccc(-c3cccc(-c4cc(Cl)c(CNC[C@@H]5CCC(=O)N5)c(OC)n4)c3Cl)c2Cl)cc2c1CN(CCO)CC2 [Cmpd 124, (S)-5-((((4-chloro-6-(2-chloro-3-(3-chloro-2-(2-(2-hydroxyethyl)-8-methoxy-1,2,3,4-tetrahydroisoquinolin-6-yl)pyridin-4-yl)phenyl)-2-methoxypyridin-3-yl)methyl)amino)methyl)pyrrolidin-2-one] | 36.3
6 | COc1cc(-c2nccc(-c3cccc(-c4ccc(CNC[C@@H]5CCC(=O)N5)c(OC)n4)c3Cl)c2Cl)ccc1CN[C@@H](C)C(=O)OC(C)C [Cmpd 125, isopropyl (4-(3-chloro-4-(2-chloro-3-(6-methoxy-5-(((((S)-5-oxopyrrolidin-2-yl)methyl)amino)methyl)pyridin-2-yl)phenyl)pyridin-2-yl)-2-methoxybenzyl)-L-alaninate] | 361
7 | COc1cc(-c2nccc(-c3cccc(-c4ccc(CNC[C@@H]5CCC(=O)N5)c(OC)n4)c3Cl)c2Cl)ccc1CNC1CCS(=O)(=O)CC1 [Cmpd 126, (S)-5-((((6-(2-chloro-3-(3-chloro-2-(4-(((1,1-dioxidotetrahydro-2H-thiopyran-4-yl)amino)methyl)-3-methoxyphenyl)pyridin-4-yl)phenyl)-2-methoxypyridin-3-yl)methyl)amino)methyl)pyrrolidin-2-one] | 36.8
8 | COc1cc(-c2nccc(-c3cccc(-c4ccc(CNC[C@@H]5CCC(=O)N5)c(OC)n4)c3Cl)c2Cl)ccc1CNC1CCOCC1 [Cmpd 127, (S)-5-((((6-(2-chloro-3-(3-chloro-2-(3-methoxy-4-(((tetrahydro-2H-pyran-4-yl)amino)methyl)phenyl)pyridin-4-yl)phenyl)-2-methoxypyridin-3-yl)methyl)amino)methyl)pyrrolidin-2-one] | 33.5
9 | COc1cc(-c2nccc(-c3cccc(-c4ccc(CNC[C@@H]5CCC(=O)N5)c(OC)n4)c3Cl)c2Cl)cc2c1CN(C[C@H]1C[C@H](O)C1)CC2 [Cmpd 133] | 21.4
10 | COc1cc(-c2nccc(-c3cccc(-c4ccc(CNC[C@@H]5CCC(=O)N5)c(OC)n4)c3Cl)c2Cl)cc2c1CN(C[C@H]1C[C@@H](O)C1)CC2 [Cmpd 134] | 23
